The source of these data is PMC3433420 (PLoS ONE, 2012).

As a reminder, the Kd is the concentration at which binding is half-saturated. Higher therefore signals weaker binding.

The target in experiment [1] is SH2 and PTB domains. In words: In-house protein microarrays (with or without 5 mM DTT), protein named per line. It counts as binding, human. The following applies: in-house protein microarray, protein named in c0 of the line, sheet ErbB4 pY733 (18-mer). The method, then: 300 pL of purified recombinant proteins and a thioredoxin tag control were spotted at a concentration of ∼40 µM in duplicate onto aldehyde-coated microscope slides (Erie Scientific Company, Portsmouth, NH) using a Nano-Plotter (NP) 2.1/E noncontact microarrayer (GeSiM, Munich, Germany). 16 identical microarrays per slide were printed in a 2×8 (column by row) format with distances of 9 mm between individual arrays; each array consisted of a 14×14 configuration of spots 400 µm apart. Following printing at a constant humidity level of 50%, slides were desiccated overnight and stored at −80°C. For peptide probing, array slides were transferred to 96-well microplates (TeleChem International, Inc., Sunnyvale, CA) and sandwiched with silicone gaskets. Prior to peptide addition, aldehyde sites were quenched with buffer B (20 mM HEPES, 100 mM KCl, 0.1% Tween-20, 5 mM DTT, pH 7.8) containing 1% bovine serum albumin (BSA) (w/v) for one hour at room temperature; moderate agitation was applied in a plate shaker (IKA, Germany) to displace glycerol from the surface area of protein sample spots. […] The arrays were subsequently washed once with 300 µL of buffer B and once with 300 µL of ddH2O. Residual water was removed by centrifugation; slides were stored under desiccation in the dark until analysis.
Microarray slides were scanned at a resolution of 10 µm using a GenePix 4000B microarray scanner and analyzed using GenePix Pro v6.0 software (Molecular Devices, Sunnyvale, CA). To independently visualize protein spots irrespective of peptide binding, samples were printed simultaneously with 400 nM of Cyanine-5 (Cy5) labeled bovine serum albumin (BSA). […] Following spot layout identification via Cy5 labeled BSA, the mean fluorescence intensity of rhodamine for duplicate protein spots was quantified and normalized by subtracting the corresponding mean fluorescence intensity of thioredoxin. Normalized fluorescence values were then imported into MATLAB and KDs determined as previously described.

Experiment [2] deals with T1, PLCG1-C SH2 domain (Homo sapiens, UniProt P19174).
T1 construct: The 6X His-tagged SH2 domain proteins used in the assay, PLCG1-C, SHC4, VAV2; thioredoxin; made in house; host or cells: E. coli BL21(DE3)pLysS
T1 sequence (P19174 668-756 limits assumed): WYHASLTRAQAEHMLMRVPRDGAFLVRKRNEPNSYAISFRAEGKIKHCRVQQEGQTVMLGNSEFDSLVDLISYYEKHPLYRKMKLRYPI
The experiment is described as follows: biochemical. It counts as binding. As to conditions: protein PLCG1-C; high-confidence ErbB interactions; mean of replicate hits.

In experiment [3] the target is T2, PIK3R1-N SH2 domain (Homo sapiens, UniProt P27986).
T2 construct: thioredoxin; made in house; host or cells: E. coli BL21(DE3)pLysS
T2 sequence (P27986 333-428 limits assumed): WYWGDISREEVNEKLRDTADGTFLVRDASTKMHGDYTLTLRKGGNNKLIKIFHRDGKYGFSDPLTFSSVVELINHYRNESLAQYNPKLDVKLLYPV
In words: biochemical. In kind it is binding. The following applies: protein PIK3R1-N; high-confidence ErbB interactions; mean of replicate hits.

Experiment [4] concerns the target T3, GRAP2 SH2 domain (Homo sapiens, UniProt O75791).
T3 sequence (O75791 58-149 limits assumed): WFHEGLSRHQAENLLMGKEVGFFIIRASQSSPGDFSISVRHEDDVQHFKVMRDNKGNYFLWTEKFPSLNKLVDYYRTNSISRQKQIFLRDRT
The experiment is described as follows: FP saturation binding assay.

The target in experiment [5] is T4, SRC SH2 domain (Homo sapiens, UniProt P12931).
T4 construct: between the c-Src SH2 domain and ErbB1 in our FP assay; 6X His; thioredoxin; made in house; host or cells: E. coli BL21(DE3)pLysS
T4 sequence (P12931 151-248 limits assumed): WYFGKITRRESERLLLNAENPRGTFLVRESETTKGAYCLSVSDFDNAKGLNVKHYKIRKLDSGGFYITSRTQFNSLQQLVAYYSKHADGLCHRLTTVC
The experiment is described as follows: FP saturation binding assay. As to conditions: protein SRC; high-confidence ErbB interactions; mean of replicate hits. The procedure, abridged: (§1)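 Rhodamine-labeled phosphopeptides (10 nM final) titrated with SH2 domain protein (0.002–10 µM, 12 points) in 20 mM HEPES, 100 mM KCl, 0.1% Tween-20, 5 mM DTT, pH 7.8; 20 min, room temperature, dark. FP read at 530/555 nm; KD fitted by nonlinear regression after thioredoxin background correction and outlier removal.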

Experiment [6] concerns the target T5, YES1 SH2 domain (Homo sapiens, UniProt P07947).
T5 construct: 6X His; thioredoxin; made in house; host or cells: BL21(DE3)pLysS E. coli
The experiment is described as follows: FP saturation binding assay. As to conditions: protein YES1; high-confidence ErbB interactions; mean of replicate hits. The procedure, abridged: as §1

For experiment [7], the target named is T6, PTK6 SH2 domain (Homo sapiens, UniProt Q13882).
T6 construct: from the PTK6 SH2 domain; 6X His; thioredoxin; made in house; host or cells: E. coli BL21(DE3)pLysS
T6 sequence (Q13882 78-170 limits assumed): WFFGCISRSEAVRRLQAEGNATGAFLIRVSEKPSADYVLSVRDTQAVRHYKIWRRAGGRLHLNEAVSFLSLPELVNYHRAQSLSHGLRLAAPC
In words: FP saturation binding assay. As to conditions: protein PTK6; high-confidence ErbB interactions; mean of replicate hits. The method in brief: as §1

Experiment [8] concerns the target T7, PIK3R3-N SH2 domain (Homo sapiens, UniProt Q92569).
T7 construct: 6X His; thioredoxin; made in house; host or cells: E. coli BL21(DE3)pLysS
In words: FP saturation binding assay. As to conditions: protein PIK3R3-N; high-confidence ErbB interactions; mean of replicate hits. The method in brief: as §1

In experiment [9] the target is T8, PIK3R3-NC tandem SH2 domains (Homo sapiens, UniProt Q92569).
T8 construct: the tandem protein was included in our analysis with all internal amino acids linking the domains; 6X His; thioredoxin; made in house; host or cells: E. coli BL21(DE3)pLysS
The experiment is described as follows: FP saturation binding assay. As to conditions: protein PIK3R3-NC; high-confidence ErbB interactions; mean of replicate hits. The procedure, abridged:
as §1

Experiment [10] deals with SH2D2A SH2 domain (Homo sapiens, UniProt Q9NP31). The experiment is described as follows: FP saturation binding assay.
SH2D2A SH2 domain, sequence (Q9NP31 95-186 limits assumed): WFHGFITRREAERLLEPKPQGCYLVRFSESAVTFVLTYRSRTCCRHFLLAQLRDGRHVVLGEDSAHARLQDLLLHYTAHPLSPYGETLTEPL
In experiment [11] the target is PIK3R2-NC tandem SH2 domains (Homo sapiens, UniProt O00459). In words: FP saturation binding assay.
PIK3R2-NC tandem SH2 domains, sequence (O00459 330-716 limits assumed): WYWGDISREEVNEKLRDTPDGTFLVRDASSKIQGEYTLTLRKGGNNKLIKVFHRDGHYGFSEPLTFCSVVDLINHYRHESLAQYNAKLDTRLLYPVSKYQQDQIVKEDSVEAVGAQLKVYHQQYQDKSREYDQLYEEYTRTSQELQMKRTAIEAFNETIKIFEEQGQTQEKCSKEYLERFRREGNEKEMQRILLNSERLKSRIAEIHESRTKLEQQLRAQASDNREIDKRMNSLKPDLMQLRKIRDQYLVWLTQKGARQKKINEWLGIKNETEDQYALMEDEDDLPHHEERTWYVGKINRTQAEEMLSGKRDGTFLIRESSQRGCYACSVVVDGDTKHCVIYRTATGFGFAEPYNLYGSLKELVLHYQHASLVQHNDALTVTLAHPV
Experiment [12] addresses SHC2-PTB domain (Homo sapiens, UniProt P98077). In words: FP saturation binding assay.
The target in experiment [13] is NCK2 SH2 domain (Homo sapiens, UniProt O43639). In words: FP saturation binding assay.
NCK2 SH2 domain, sequence (O43639 285-380 limits assumed): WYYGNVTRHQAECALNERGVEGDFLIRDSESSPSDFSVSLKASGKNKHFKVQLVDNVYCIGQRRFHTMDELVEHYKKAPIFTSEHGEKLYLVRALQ
The target in experiment [14] is T9, SH2D1B SH2 domain (Homo sapiens, UniProt O14796).
T9 sequence (O14796 5-101 limits assumed): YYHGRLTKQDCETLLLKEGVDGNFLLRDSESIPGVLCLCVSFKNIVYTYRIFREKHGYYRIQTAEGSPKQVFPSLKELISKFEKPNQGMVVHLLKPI
The experiment is described as follows: FP saturation binding assay.

Experiment [15] deals with T10, SH2D1A SH2 domain (Homo sapiens, UniProt O60880).
T10 sequence (O60880 6-104 limits assumed): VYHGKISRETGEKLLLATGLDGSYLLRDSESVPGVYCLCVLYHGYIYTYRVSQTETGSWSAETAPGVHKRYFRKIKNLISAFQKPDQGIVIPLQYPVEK
In words: FP saturation binding assay.

Experiment [16] deals with T11, PTPN11-NC tandem SH2 domains (Homo sapiens, UniProt Q06124).
T11 sequence (Q06124 6-216 limits assumed): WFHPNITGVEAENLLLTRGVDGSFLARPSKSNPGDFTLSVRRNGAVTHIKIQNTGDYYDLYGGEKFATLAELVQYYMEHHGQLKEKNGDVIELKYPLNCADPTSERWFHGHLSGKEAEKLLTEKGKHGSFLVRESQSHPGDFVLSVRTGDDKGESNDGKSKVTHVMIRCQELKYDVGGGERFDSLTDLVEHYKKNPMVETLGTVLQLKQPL
The experiment is described as follows: FP saturation binding assay.

Experiment [17] deals with SYK-NC tandem SH2 domains (Homo sapiens, UniProt P43405). The experiment is described as follows: FP saturation binding assay.

“And” between values parts separate entries of the source, which are not always exact repeats. Equal entries are not always repeated. Residues, ends and D or L forms follow the SMILES beside them.

SHC2-PTB domain, sequence (P98077 147-329 limits assumed): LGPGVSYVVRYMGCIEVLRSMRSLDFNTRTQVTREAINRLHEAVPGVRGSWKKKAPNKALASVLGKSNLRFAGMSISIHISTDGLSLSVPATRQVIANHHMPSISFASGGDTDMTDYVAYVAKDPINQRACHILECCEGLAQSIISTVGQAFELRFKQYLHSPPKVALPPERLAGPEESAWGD
T5 sequence (P07947 158-255 limits assumed): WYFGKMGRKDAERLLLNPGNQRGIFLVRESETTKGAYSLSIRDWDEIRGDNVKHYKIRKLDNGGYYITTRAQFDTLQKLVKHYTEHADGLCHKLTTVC

“LGSGAFGTVpYKGIWVPEd [ErbB4 pY733 (18-mer), N-terminally rhodamine-labeled 18-mer phosphopeptide]”: the Kd was 800 nM and 400 nM in experiment [1] (PM Assay Replicate # 39307, Array Fabrication # 39320); 790 nM in experiment [1] (PM Assay Replicate # 39334, Array Fabrication # 39329).
Turning to `CC(C)C[C@H](NC(=O)[C@H](Cc1ccc(O)cc1)NC(=O)[C@H](CC(C)C)NC(=O)[C@@H]1CCCN1C(=O)[C@H](CCC(=O)O)NC(=O)[C@H](CC(N)=O)NC(=O)[C@@H](NC(=O)[C@H](Cc1ccc(OP(=O)(O)O)cc1)NC(=O)[C@H](CCC(=O)O)NC(=O)[C@H](CC(=O)O)NC(=O)[C@H](CCC(=O)O)NC(=O)[C@H](C)NC(=O)[C@H](CCCCN)NC(=O)[C@@H]1CCCN1C(=O)[C@@H]1CCCN1C(=O)CNC(=O)[C@@H](N)CC(N)=O)C(C)C)C(=O)N[C@@H](CC(=O)O)C(=O)O` [ErbB4 1202 18-mer] (HELM PEPTIDE1{N.G.P.P.K.A.E.D.E.[O=C([C@H](Cc1ccc(OP(=O)(O)O)cc1)N[*:1])[*:2]].V.N.E.P.L.Y.L.D}$$$$V2.0), the Kd in experiment [2] is 1920 nM; in experiment [3] it was 5.39 µM; in experiment [4], 2290 nM; in experiment [5], 2300 nM; in experiment [6], 8.4 µM; in experiment [7] it was 2040 nM. The Kd in experiment [8] amounted to 2410 nM; in experiment [9], 1210 nM; in [10], 6 µM; in experiment [11], 1.84 µM.
With `CC(C)C[C@H](NC(=O)[C@H](CCC(=O)O)NC(=O)[C@H](Cc1c[nH]c2ccccc12)NC(=O)[C@@H](NC(=O)[C@@H](NC(=O)[C@@H](NC(=O)CNC(=O)[C@H](Cc1ccc(O)cc1)NC(=O)[C@H](CO)NC(=O)[C@H](Cc1c[nH]c2ccccc12)NC(=O)[C@@H](NC(=O)[C@@H](N)CC(=O)O)C(C)C)C(C)C)[C@@H](C)O)C(C)C)C(=O)N[C@@H](CC(=O)O)C(=O)O` [ErbB1 Y900 (non-phospho)], the Kd was found to be 5.42 µM in experiment [12] and 6.93 µM in [11].
Take `CC(C)C[C@H](NC(=O)[C@H](Cc1ccc(OP(=O)(O)O)cc1)NC(=O)[C@H](CCC(=O)O)NC(=O)[C@@H]1CCCN1C(=O)[C@H](CC(N)=O)NC(=O)[C@@H](N)CCC(=O)O)C(=O)N[C@H](C(=O)N1CCC[C@H]1C(=O)N[C@@H](CCC(N)=O)C(=O)NCC(=O)NCC(=O)N[C@@H](C)C(=O)N[C@@H](CC(=O)O)C(=O)O)[C@@H](C)O` [ErbB2 1196 13-mer]: the affinity in experiment [13], expressed as Kd, was 3.72 µM.
Regarding `CC[C@H](C)[C@H](NC(=O)[C@H](Cc1c[nH]c2ccccc12)NC(=O)[C@H](CC(C)C)NC(=O)CNC(=O)[C@H](CCCCN)NC(=O)[C@H](Cc1ccc(OP(=O)(O)O)cc1)NC(=O)[C@@H](NC(=O)[C@@H](NC(=O)CNC(=O)[C@@H](N)Cc1ccccc1)[C@@H](C)O)C(C)C)C(=O)N1CCC[C@H]1C(=O)N[C@@H](CCC(=O)O)C(=O)N[C@@H](CC(=O)O)C(=O)O` [ErbB1 pY727] (HELM PEPTIDE1{F.G.T.V.[O=C([C@H](Cc1ccc(OP(=O)(O)O)cc1)N[*:1])[*:2]].K.G.L.W.I.P.E.D}$$$$V2.0), the Kd came to 240 nM in experiment [14], 2710 nM in experiment [15], 3.15 µM in experiment [16] and 11.5 µM in experiment [17]. In addition, in [14] (FP saturation assay), the “KD range of recruitment of SH2D1B” value is reported as “in the nM KD range”. Besides, the “KD range of recruitment of SH2D1A (SHD1A [sic])” value in experiment [15] (FP saturation assay) is on record as “in the nM KD range”.
